Source: US20250154169A1, “COMPOUNDS AND METHODS FOR MODULATING SPLICING” (REMIX THERAPEUTICS INC., priority 2021, published 2025)

Columns and labels:
HTT mRNA = assay: Splicing RT-qPCR assay, HTT canonical (CJ) and alternative (AJ) junction mRNA; type: cell-based, human; settings: Homo sapiens, A673 or K562 cells, 24 hours compound treatment; for IC50: 24 h, read-out: HTT CJ (IC50, decrease in canonical junction mRNA); for AC50: read-out: HTT AJ (AC50, increase in alternative junction mRNA)
Procedure: (§1) Compounds described herein were used to modulate RNA transcript abundance in cells. The expression of a target mRNA was measured by detecting the formation of an exon-exon junction in the canonical transcript (CJ). A compound mediated exon-inclusion event was detected by observing an increase in formation of a new junction with an alternative exon (AJ). Real-time qPCR assays were used to detect these splicing switches and interrogate the potency of various compounds towards different target genes. A high-throughput real time quantitative PCR (RT-qPCR) assay was developed to measure these two isoforms of the mRNA (CJ and AJ) for exemplary genes, such as HTT, SMN2, and MYB, together with a control housekeeping gene, GAPDH or GUSB or PPIA, used for normalization. Briefly, the A673 or K562 cell line was treated with various compounds described herein (e.g., compounds of Formula (I)). After treatment, the levels of the HTT, MYB, or SMN2 mRNA targets were determined from each sample of cell lysate by cDNA synthesis followed by qPCR.
(§2) • Cells-to-CT 1-step kit: ThermoFisher A25602, Cells-to-CT lysis reagent: ThermoFisher 4391851C, TaqMan™ Fast Virus 1-Step Master Mix: ThermoFisher 4444436 • GAPDH: VIC-PL, ThermoFisher 4326317E (Assay: Hs99999905_m1)—used for K562/suspension cell lines • GUSB: VIC-PL, ThermoFisher 4326320E (Assay: Hs99999908_m1)—used for K562/suspension cell lines • PPIA: VIC-PL, ThermoFisher 4326316E (Assay: Hs99999904_m1)—used for A673/adherent cell lines
(§3) The A673 cell line was cultured in DMEM with 10% FBS. Cells were diluted with full growth media and plated in a 96-well plate (15,000 cells in 100 ul media per well). The plate was incubated at 37° C. with 5% CO2 for 24 hours to allow cells to adhere. An 11-point 3-fold serial dilution of the compounds was made in DMSO then diluted in media in an intermediate plate. Compounds were transferred from the intermediate plate to the cell plate with the top dose at a final concentration of 10 uM in the well. Final DMSO concentration was kept at or below 0.25%. The cell plate was returned to the incubator at 37° C. with 5% CO2 for an additional 24 hours.
(§4) The K562 cell line was cultured in IMDM with 10% FBS. For K562, cells were diluted with full growth media and plated in either a 96-well plate (50,000 cells in 50 uL media per well) or a 384-well plate (8,000-40,000 cells in 45 uL media per well). An 11-point 3-fold serial dilution of the compounds were made in DMSO then diluted in media in an intermediate plate. Compound was transferred from the intermediate plate to the cell plate with the top dose at a final concentration of 10 uM in the well. Final DMSO concentration was kept at or below 0.25%. Final volume was 100 uL for 96-well plate and 50 uL for 384-well plate. The cell plate was then placed in an incubator at 37° C. with 5% CO2 for 24 hours.
(§5) The cells were then gently washed with 50 uL-100 uL cold PBS before proceeding to addition of lysis buffer. 30 uL-50 uL of room temperature lysis buffer with DNAse I (and optionally RNAsin) was added to each well. Cells were shaken/mixed thoroughly at room temperature for 5-10 minutes for lysis to take place and then 3 uL-5 uL of room temperature stop solution was added and wells were shaken/mixed again. After 2-5 minutes, the cell lysate plate was transferred to ice for RT-qPCR reaction setup. The lysates could also be frozen at −80° C. for later use.
(§6) In some cases, a direct lysis buffer was used. An appropriate volume of 3× lysis buffer (10 mM Tris, 150 mM NaCl, 1.5%-2.5% Igepal and 0.1-1 U/uL RNAsin, pH 7.4) was directly added to either K562 or A673 cells in media and mixed by pipetting 3 times. The plates were then incubated at room temperature with shaking/rocking for 20-50 minutes to allow for lysis to take place. After this time, the cell lysate plate was transferred to ice to set up for the RT-qPCR reactions. The lysates could also be frozen at −80° C. for later use. […]

MYB mRNA = assay: Splicing RT-qPCR assay, MYB canonical (CJ) and alternative (AJ) junction mRNA; type: cell-based, human; settings: Homo sapiens, 24 h, A673 or K562 cells, 24 hours compound treatment, RT-qPCR; for AC50: read-out: MYB AJ (AC50, increase in alternative junction mRNA); for IC50: read-out: MYB CJ (IC50, decrease in canonical junction mRNA)
Procedure: as §1, §2, §3, §4, §5, §6

| SMILES | IC50 (HTT mRNA) [nM] | IC50 (MYB mRNA) [nM] | AC50 (HTT mRNA) [nM] | AC50 (MYB mRNA) [nM] |
| --- | --- | --- | --- | --- |
| COCc1nc2c(F)cc(NC(=O)c3ccc(N4CCNCC4)c4cn(C)nc34)cc2o1 [Compound 504, N-[4-fluoro-2-(methoxymethyl)-1,3-benzoxazol-6-yl]-2-methyl-4-(piperazin-1-yl) indazole-7-carboxamide] | 1000 to 10000 | 1000 to 10000 | 1000 to 10000 | 1000 to 10000 |
| CCn1cc2c(OC3CCNCC3)ccc(C(=O)Nc3cc(F)c4nc(C)cn4c3)c2n1 [Compound 505, 2-ethyl-N-{8-fluoro-2-methylimidazo[1,2-a]pyridin-6-yl}-4-(piperidin-4-yloxy) indazole-7-carboxamide] | 1000 to 10000 | 100 to 1000 | 1000 to 10000 | 100 to 1000 |
| CCn1cc2c(C3=CCNCC3)ccc(C(=O)Nc3cc(F)c4nc(C)cn4c3)c2n1 [Compound 506, 2-ethyl-N-{8-fluoro-2-methylimidazo[1,2-a]pyridin-6-yl}-4-(1,2,3,6-tetrahydropyridin-4-yl) indazole-7-carboxamide] | 100 to 1000 | 100 to 1000 | 1000 to 10000 | 100 to 1000 |
| Cc1cn2cc(NC(=O)c3ccc(N4CCNCC4)c4cn(C)nc34)nc(C#N)c2n1 [Compound 507, N-{8-cyano-2-methylimidazo[1,2-a]pyrazin-6-yl}-2-methyl-4-(piperazin-1-yl) indazole-7-carboxamide] | 1000 to 10000 | 100 to 1000 | 1000 to 10000 | 100 to 1000 |
| Cc1nc2c(F)cc(NC(=O)c3ccc(N4CCNCC4)c4cn(C)nc34)cc2[nH]1 [Compound 509] | > 10000 | 1000 to 10000 | > 10000 | 1000 to 10000 |
| COCCn1cc2c(N3CCNCC3)ccc(C(=O)Nc3cn4cc(C)nc4c(OC)n3)c2n1 [Compound 510, N-{8-methoxy-2-methylimidazo[1,2-a]pyrazin-6-yl}-2-(2-methoxyethyl)-4-(piperazin-1-yl) indazole-7-carboxamide] | 1000 to 10000 | 100 to 1000 | 1000 to 10000 | 100 to 1000 |
| CCn1cc2c([C@@]34CCNCC3C4)ccc(C(=O)Nc3cc(F)c4nc(C)cn4c3)c2n1 (stereo partly shown) [Compound 513] | 1000 to 10000 | 100 to 1000 | > 10000 | 100 to 1000 |
| CCN(CC)C1(C)CCN(c2ccc(C(=O)Nc3cc(F)c4nc(C)cn4c3)c3nn(CC)cc23)CC1 [Compound 517, 4-[4-(diethylamino)-4-methylpiperidin-1-yl]-2-ethyl-N-{8-fluoro-2-methylimidazo[1,2-a]pyridin-6-yl}indazole-7-carboxamide trifluoroacetic acid] | 1000 to 10000 | 100 to 1000 | > 10000 | 100 to 1000 |
| Cc1cn2cc(NC(=O)c3ccc(N4CCNCC4)c4cn(C)nc34)ccc2n1 [Compound 518, 2-methyl-N-{2-methylimidazo[1,2-a]pyridin-6-yl}-4-(piperazin-1-yl) indazole-7-carboxamide] | 1000 to 10000 | 100 to 1000 | 1000 to 10000 | < 100 |
| CCN[C@@H]1CCN(c2ccc(C(=O)Nc3cc(F)c4nc(C)cn4c3)c3nn(C)cc23)C1 [Compound 520, 4-[(3R)-3-(ethylamino)pyrrolidin-1-yl]-N-{8-fluoro-2-methylimidazo[1,2-a]pyridin-6-yl}-2-methylindazole-7-carboxamide] | 1000 to 10000 | < 100 | 1000 to 10000 | < 100 |
| Cc1cn2cc(NC(=O)c3ccc(N4CC[C@@H](NCC5CC5)C4)c4cn(C)nc34)cc(F)c2n1 [Compound 522, 4-[(3R)-3-[(cyclopropylmethyl)amino]pyrrolidin-1-yl]-N-{8-fluoro-2-methylimidazo[1,2-a]pyridin-6-yl}-2-methylindazole-7-carboxamide] | 1000 to 10000 | < 100 | 1000 to 10000 | 100 to 1000 |
| Cc1cn2cc(NC(=O)c3ccc(N4CC[C@@H](NC(C)C)C4)c4cn(C)nc34)cc(F)c2n1 [Compound 524, N-{8-fluoro-2-methylimidazo[1,2-a]pyridin-6-yl}-4-[(3R)-3-(isopropylamino)pyrrolidin-1-yl]-2-methylindazole-7-carboxamide] | > 10000 | < 100 | > 10000 | < 100 |
| CCn1cc2c(N3CCC(C)(NC4CC4)CC3)ccc(C(=O)Nc3cc(F)c4nc(C)cn4c3)c2n1 [Compound 525, 4-[4-(cyclopropylamino)-4-methylpiperidin-1-yl]-2-ethyl-N-{8-fluoro-2-methylimidazo[1,2-a]pyridin-6-yl}indazole-7-carboxamide] | 100 to 1000 | < 100 | 100 to 1000 | < 100 |

Second part, led by results:

| IC50 (HTT mRNA) [nM] | IC50 (MYB mRNA) [nM] | SMILES | AC50 (HTT mRNA) [nM] | AC50 (MYB mRNA) [nM] |
| --- | --- | --- | --- | --- |
| < 100 | < 100 | C=Cn1cc2c(N3CCC(NC)CC3)ccc(C(=O)Nc3cc(F)c4nc(C)cn4c3)c2n1 [Compound 502, 2-ethenyl-N-{8-fluoro-2-methylimidazo[1,2-a]pyridin-6-yl}-4-[4-(methylamino)piperidin-1-yl]indazole-7-carboxamide] | 100 to 1000 | < 100 |
| 100 to 1000 | < 100 | C=Cn1cc2c(N3CCC(NCC)CC3)ccc(C(=O)Nc3cc(F)c4nc(C)cn4c3)c2n1 [Compound 503, 2-ethenyl-4-[4-(ethylamino)piperidin-1-yl]-N-{8-fluoro-2-methylimidazo[1,2-a]pyridin-6-yl}indazole-7-carboxamide] | < 100 | < 100 |
| < 100 | < 100 | CCn1cc2c(N3CCC(CC)(N(C)C)CC3)ccc(C(=O)Nc3cc(F)c4nc(C)cn4c3)c2n1 [Compound 508, 4-[4-(dimethylamino)-4-ethylpiperidin-1-yl]-2-ethyl-N-{8-fluoro-2-methylimidazo[1,2-a]pyridin-6-yl}indazole-7-carboxamide] | 100 to 1000 | < 100 |
| 100 to 1000 | 100 to 1000 | Cc1nc2c(C)cc(NC(=O)c3ccc(N4CCNCC4)c4cn(C)nc34)nc2o1 [Compound 511, N-{2,7-dimethyl-[1,3]oxazolo[5,4-b]pyridin-5-yl}-2-methyl-4-(piperazin-1-yl) indazole-7-carboxamide] | 100 to 1000 | 100 to 1000 |
| 100 to 1000 | < 100 | Cn1cc2c(N3CCNCC3)ccc(C(=O)Nc3cc(F)c4nc(CF)oc4c3)c2n1 [Compound 514, N-[4-fluoro-2-(fluoromethyl)-1,3-benzoxazol-6-yl]-2-methyl-4-(piperazin-1-yl) indazole-7-carboxamide] | 100 to 1000 | < 100 |
| 100 to 1000 | < 100 | CCn1cc2c(N3CCC(CC)(NC)CC3)ccc(C(=O)Nc3cc(F)c4nc(C)cn4c3)c2n1 [Compound 515, 2-ethyl-4-[4-ethyl-4-(methylamino)piperidin-1-yl]-N-{8-fluoro-2-methylimidazo[1,2-a]pyridin-6-yl}indazole-7-carboxamide] | 100 to 1000 | < 100 |
